Values after ≈ are worked out from the molar mass of the structure shown. “Also recorded” adds a separate entry of the source. Like-named read-outs stand apart in the source and are kept apart here.
Legend:
Mtb H37Rv = assay: MIC broth microdilution assay against Mtb H37Rv (with and without clavulanate); type: cell-based, Mycobacterium tuberculosis; details: for increase of MIC relative to T405: Mtb H37Rv without clavulanate; for MIC: Mycobacterium tuberculosis, H37RV, 336 h, read-out: MIC Mtb H37Rv
Mab ATCC 19977 = assay: MIC broth microdilution assay against Mab ATCC 19977; type: cell-based, Mycobacteroides abscessus; details: for MIC: Mycobacteroides abscessus, read-out: MIC Mab ATCC 19977
DacB2 = target: T1, DacB2 (Mycobacterium tuberculosis, UniProt I6Y204); assay: DacB2 adduct formation and stability comparison by intact-protein UPLC-HRMS; type: binding; details: for DacB2 adduct formation: 20 μM drug, 1 h
T1 construct: made in house

LdtMt2 = target: T2, LdtMt2 (Mycobacterium tuberculosis, UniProt I6Y9J2); assay: LdtMt2 adduct formation by intact-protein UPLC-HRMS; type: binding; details: penem 20 μM, 1 h, 25 mM HEPES pH 7.0, 20° C.
T2 construct: made in house

[1] = without clavulanate, Middlebrook 7H9, 37° C., 14 d
[2] = ATCC19977, Middlebrook 7H9, 30° C., 72 h
[3] = 24 h after removal of free drug, 20° C.

T1 sequence (I6Y204 28-291): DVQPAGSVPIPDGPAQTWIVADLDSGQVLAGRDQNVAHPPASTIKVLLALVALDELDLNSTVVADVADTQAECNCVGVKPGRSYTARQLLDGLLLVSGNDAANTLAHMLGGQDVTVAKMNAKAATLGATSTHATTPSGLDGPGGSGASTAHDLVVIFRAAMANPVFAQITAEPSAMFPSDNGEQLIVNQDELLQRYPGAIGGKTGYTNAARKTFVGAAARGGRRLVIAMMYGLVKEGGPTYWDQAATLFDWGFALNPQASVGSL
T2 sequence (I6Y9J2 56-408): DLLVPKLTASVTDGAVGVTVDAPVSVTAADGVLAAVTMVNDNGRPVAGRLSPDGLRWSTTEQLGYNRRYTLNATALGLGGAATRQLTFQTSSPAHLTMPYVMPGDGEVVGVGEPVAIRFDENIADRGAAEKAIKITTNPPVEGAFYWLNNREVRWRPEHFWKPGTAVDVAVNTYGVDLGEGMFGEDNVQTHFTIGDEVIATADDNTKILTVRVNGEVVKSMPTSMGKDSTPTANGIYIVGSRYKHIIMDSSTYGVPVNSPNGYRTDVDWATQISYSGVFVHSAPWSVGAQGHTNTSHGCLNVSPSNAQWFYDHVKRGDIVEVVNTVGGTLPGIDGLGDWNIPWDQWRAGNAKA

Row | SMILES | MIC (Mtb H37Rv; [1]) | MIC Mtb H37Rv with Clavulanate (5 μg/ml) (Mtb H37Rv; Middlebrook 7H9, 37° C., 14 d) | MIC (Mab ATCC 19977; [2]) | also measured
1 | C[C@@H](O)[C@H]1C(=O)N2C(C(=O)O)=C(SC3CN(c4nc5ccccc5s4)C3)S[C@H]12 [Compound T423, (5R,6S)-3-((1-(benzo[d]thiazol-2-yl)azetidin-3-yl)thio)-6-((R)-1-hydroxyethyl)-7-oxo-4-thia-1-azabicyclo[3.2.0]hept-2-ene-2-carboxylic acid] | 8 µg/mL | 2 µg/mL | 64 µg/mL (≈ 147 µM) | increase of MIC relative to T405 (Mtb H37Rv): 16 fold
2 | C[C@@H](O)[C@H]1C(=O)N2C(C(=O)O)=C(S[C@@H]3CCN(C4CCOCC4)C3)S[C@H]12 [Compound T432, (5R,6S)-6-((R)-1-hydroxyethyl)-7-oxo-3-(((R)-1-(tetrahydro-2H-pyran-4-yl)pyrrolidin-3-yl)thio)-4-thia-1-azabicyclo[3.2.0]hept-2-ene-2-carboxylic acid] | 4 µg/mL |  | 4 µg/mL (≈ 9.99 µM) | 
3 | CCN1CC[C@@H](SC2=C(C(=O)O)N3C(=O)[C@H]([C@@H](C)O)[C@H]3S2)C1 [Compound T431, (5R,6S)-3-(((R)-1-ethylpyrrolidin-3-yl)thio)-6-((R)-1-hydroxyethyl)-7-oxo-4-thia-1-azabicyclo[3.2.0]hept-2-ene-2-carboxylic acid] | 4 µg/mL |  | 4 µg/mL (≈ 11.6 µM) | 
4 | C[C@@H](O)[C@H]1C(=O)N2C(C(=O)O)=C(SC3CCNCC3)S[C@H]12 [Compound T427, (5R,6S)-6-((R)-1-hydroxyethyl)-7-oxo-3-(piperidin-4-ylthio)-4-thia-1-azabicyclo[3.2.0]hept-2-ene-2-carboxylic acid] |  | 0.5 µg/mL |  | increase of MIC relative to T405 (Mtb H37Rv): two-fold; MIC (Mtb H37Rv): 1 µg/mL; MIC (Mab ATCC 19977; ATCC19977, 72 h): 4 µg/mL (≈ 12.1 µM)
5 | C[C@@H](O)[C@H]1C(=O)N2C(C(=O)O)=C(SC3CNC3)S[C@H]12 [Compound T422, (5R,6S)-3-(azctidin-3-ylthio)-6-((R)-1-hydroxyethyl)-7-oxo-4-thia-1-azabicyclo[3.2.0]hept-2-ene-2-carboxylic acid] |  | 0.5 µg/mL |  | MIC (Mtb H37Rv): 0.5 µg/mL; weaker activity (MIC) relative to T405 (Mab ATCC 19977; Mab ATCC 19977): 2 fold; MIC (Mab ATCC 19977; ATCC19977, 72 h): 4 µg/mL (≈ 13.2 µM)
6 | C[C@@H](O)[C@H]1C(=O)N2C(C(=O)O)=C(SC3CN(c4nc5ccccc5n4C)C3)S[C@H]12 [Compound T418, (5R,6S)-6-((R)-1-hydroxyethyl)-3-((1-(1-methyl-1H-benzo[d]imidazol-2-yl)azetidin-3-yl)thio)-7-oxo-4-thia-1-azabicyclo[3.2.0]hept-2-ene-2-carboxylic acid] | 2 µg/mL | 0.5 µg/mL | 64 µg/mL (≈ 148 µM) | increase of MIC relative to T405 (Mtb H37Rv): four-fold
7 | C[C@@H](O)[C@H]1C(=O)N2C(C(=O)O)=C(S[C@H]3CCNC3)S[C@H]12 [Compound T426, (5R,6S)-6-((R)-1-hydroxyethyl)-7-oxo-3-(((S)-pyrrolidin-3-yl)thio)-4-thia-1-azabicyclo[3.2.0]hept-2-ene-2-carboxylic acid] | 0.5 µg/mL | 0.25 µg/mL | 2 µg/mL (≈ 6.32 µM) | MIC against Mab (Mab ATCC 19977; Mab ATCC 19977): 1 µg/mL (≈ 3.16 µM); DacB2 adduct formation (DacB2; 20° C., pH 7.0): formed intact adducts; DacB2 adduct stability (in words) (DacB2; [3]): remained completely bound; also recorded: fully bound; also recorded: stable for at least 24 h after drug removal; covalent LdtMt2 adduct formed (LdtMt2): formed a +86 Da LdtMt2 adduct; also recorded: fragmentation to a M+86 Da 3-hydroxybutyryl group
8 | C[C@@H](O)[C@H]1C(=O)N2C(C(=O)O)=C(SCC3CNC3)S[C@H]12 [Compound T428, (5R,6S)-3-((azetidin-3-ylmethyl)thio)-6-((R)-1-hydroxyethyl)-7-oxo-4-thia-1-azabicyclo[3.2.0]hept-2-ene-2-carboxylic acid] | 0.5 µg/mL | 0.25 µg/mL | 8 µg/mL (≈ 25.3 µM) | DacB2 adduct formation (DacB2; 20° C., pH 7.0): formed intact adducts; DacB2 adduct stability (in words) (DacB2; [3]): partially hydrolyzed; inhibitor retained on DacB2 (percent bound) (DacB2; 24 h after removal of free drug, 20° C., pH 7.0): 86%; loss of drug from DacB2 adduct (DacB2; 24 h after washing away free drug): 14%; covalent LdtMt2 adduct formed (LdtMt2): formed a +86 Da LdtMt2 adduct; also recorded: fragmentation to a M+86 Da 3-hydroxybutyryl group
9 | C[C@@H](O)[C@H]1C(=O)N2C(C(=O)O)=C(S[C@@H]3CN[C@H](C(=O)N(C)C)C3)[C@H](C)[C@H]12 [Meropenem, reference compound] | 8 µg/mL | 0.5 µg/mL |  | MIC Mtb H37Rv (Mtb H37Rv; [1]): 8 µg/mL; DacB2 adduct formation (DacB2; 20° C., pH 7.0): fully reacts with DacB2; DacB2 adduct stability (in words) (DacB2; [3]): stable after removal of drug for 24 h; DacB2 adduct stability (in words) (DacB2; 24 h after removal of free drug, 20° C., listed as meropenem): remained completely bound; also recorded: fully bound
10 | C[C@@H](O)[C@H]1C(=O)N2C(C(=O)O)=C(SCCN=CN)C[C@H]12 [Imipenem, reference compound] |  |  | 8 µg/mL (≈ 26.7 µM) | MIC Mab ATCC 19977 (Mab ATCC 19977; Middlebrook 7H9, 30° C., 72 h): 8 µg/mL (≈ 26.7 µM)
11 | C[C@@H](O)[C@H]1C(=O)N2C(C(=O)O)=C(S[C@@H]3CCNC3)S[C@H]12 [Compound T425, (5R,6S)-6-((R)-1-hydroxyethyl)-7-oxo-3-(((R)-pyrrolidin-3-yl)thio)-4-thia-1-azabicyclo[3.2.0]hept-2-ene-2-carboxylic acid] | 0.5 µg/mL | 0.25 µg/mL | 2 µg/mL (≈ 6.32 µM) | MIC against Mab (Mab ATCC 19977; Mab ATCC 19977): 1 µg/mL (≈ 3.16 µM)
12 | C[C@@H](O)[C@H]1C(=O)N2C(C(=O)O)=C(SC3CN(C4CCOCC4)C3)S[C@H]12 [Compound T430, (5R,6S)-6-((R)-1-hydroxyethyl)-7-oxo-3-((1-(tetrahydro-2H-pyran-4-yl)azetidin-3-yl)thio)-4-thia-1-azabicyclo[3.2.0]hept-2-ene-2-carboxylic acid] | 4 µg/mL |  | 4 µg/mL (≈ 10.3 µM) | 
13 | C[C@@H](O)[C@H]1C(=O)N2C(C(=O)O)=C(SCC3CCNCC3)S[C@H]12 [Compound T429, (5R,6S)-6-((R)-1-hydroxyethyl)-7-oxo-3-((piperidin-4-ylmethyl)thio)-4-thia-1-azabicyclo[3.2.0]hept-2-ene-2-carboxylic acid] | 0.5 µg/mL | 0.25 µg/mL | 4 µg/mL (≈ 11.6 µM) | 
14 | C[C@@H](O)[C@H]1C(=O)N2C(C(=O)O)=C(SC3CN(C4=NCCCS4)C3)S[C@H]12 [Compound T420, (5R,6S)-3-((1-(5,6-dihydro-4H-1,3-thiazin-2-yl)azetidin-3-yl)thio)-6-((R)-1-hydroxyethyl)-7-oxo-4-thia-1-azabicyclo[3.2.0]hept-2-ene-2-carboxylic acid] | 2 µg/mL | 0.5 µg/mL | 16 µg/mL (≈ 39.8 µM) | increase of MIC relative to T405 (Mtb H37Rv): two dilutions
15 | CCN1CC(SC2=C(C(=O)O)N3C(=O)[C@H]([C@@H](C)O)[C@H]3S2)C1 [Compound T421, (5R,6S)-3-((1-ethylazetidin-3-yl)thio)-6-((R)-1-hydroxyethyl)-7-oxo-4-thia-1-azabicyclo[3.2.0]hept-2-ene-2-carboxylic acid] | 1 µg/mL | 0.5 µg/mL | 4 µg/mL (≈ 12.1 µM) | 

Reference: patent publication US20250282796A1, “PENEM ANTIBACTERIALS AGAINST MYCOBACTERIAL PATHOGENS AND D,D- AND L,D TRANSPEPTIDASES” (The Johns Hopkins University, priority 2022, published 2025)
